Key:
Type in all cases: in vivo
Digitaria sanguinalis = test: Post-emergence test experiment, Digitaria sanguinalis; conditions: 1000 g a.i./ha, 3 weeks in greenhouse, fresh weight inhibition
Summary of the method: (§1)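 Growth inhibition is given as reduction in fresh weight, assessed 3 weeks post-treatment in the greenhouse. Spray solutions (acetone, tween-80, water, with 1.5 L/ha methyl oleate concentrate synergist) were applied to weeds and crops at 2-3 leaves, 2 weeks from sowing.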

Echinochloa crusgalli = test: Post-emergence test experiment, Echinochloa crusgalli; conditions: 1000 g a.i./ha, 3 weeks in greenhouse, fresh weight inhibition
Summary of the method: as §1

[1] = test system: Monocotyledonous and dicotyledonous weed seeds and main crop seeds; test: Post-emergence test experiment, other weeds and crops (Table 4, 1000 g a.i./ha); conditions: 3 weeks in greenhouse, fresh weight inhibition
Summary of the method: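 Growth inhibition is scored on fresh weight. Spray solutions were made in acetone with tween-80, diluted in water, plus 1.5 L/ha methyl oleate emulsible concentrate. Plants from greenhouse-grown weed and crop seeds were treated post-emergence at 2-3 leaves, 2 weeks after sowing.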

With `CCNc1c(Cl)c(F)nc(O[C@H](C)C(=O)SC)c1Cl` [Compound 2-376] the “Activity level (growth inhibition rate), Digitaria sanguinalis” value (Digitaria sanguinalis) was 5 (Level 5: the growth inhibition rate is greater than 85%), the “Activity level (growth inhibition rate), Echinochloa crusgalli” value (Echinochloa crusgalli) was 5 (Level 5: the growth inhibition rate is greater than 85%) and the “Activity level (growth inhibition rate), Abutilon theophrasti Medic.” value [1] was 5 (Level 5: the growth inhibition rate is greater than 85%). For the same compound, the “Activity level (growth inhibition rate), Galium aparine” value [1] was 5 (Level 5: the growth inhibition rate is greater than 85%) and the “Activity level (growth inhibition rate), Monochoria Vaginalis” value [1] was 5 (Level 5: the growth inhibition rate is greater than 85%).
`CC(Oc1nc(F)c(Cl)c(N)c1Cl)C(=O)Oc1ccccc1` (stereo not shown) [Compound 2-299] was tested, and the “Activity level (growth inhibition rate), Digitaria sanguinalis” value (Digitaria sanguinalis) was 5 (Level 5: the growth inhibition rate is greater than 85%), the “Activity level (growth inhibition rate), Echinochloa crusgalli” value (Echinochloa crusgalli) was 5 (Level 5: the growth inhibition rate is greater than 85%) and the “Activity level (growth inhibition rate), Abutilon theophrasti Medic.” value [1] was 5 (Level 5: the growth inhibition rate is greater than 85%). For the same compound, the “Activity level (growth inhibition rate), Galium aparine” value [1] was 5 (Level 5: the growth inhibition rate is greater than 85%) and the “Activity level (growth inhibition rate), Monochoria Vaginalis” value [1] was 5 (Level 5: the growth inhibition rate is greater than 85%).
In the case of `CC(C)CCCCCSC(=O)[C@@H](C)Oc1nc(F)c(Cl)c(N)c1Cl` [Compound 2-160], the “Activity level (growth inhibition rate), Digitaria sanguinalis” value (Digitaria sanguinalis) is reported as 5 (Level 5: the growth inhibition rate is greater than 85%), the “Activity level (growth inhibition rate), Echinochloa crusgalli” value (Echinochloa crusgalli) is reported as 5 (Level 5: the growth inhibition rate is greater than 85%) and the “Activity level (growth inhibition rate), Abutilon theophrasti Medic.” value [1] is reported as 5 (Level 5: the growth inhibition rate is greater than 85%). For the same compound, the “Activity level (growth inhibition rate), Galium aparine” value [1] was 5 (Level 5: the growth inhibition rate is greater than 85%) and the “Activity level (growth inhibition rate), Monochoria Vaginalis” value [1] was 5 (Level 5: the growth inhibition rate is greater than 85%).
For `CCC(OC)OC(=O)C(C)Oc1nc(F)c(Cl)c(N)c1Cl` (stereo not shown) [Compound 2-291], the “Activity level (growth inhibition rate), Digitaria sanguinalis” value (Digitaria sanguinalis) was 5 (Level 5: the growth inhibition rate is greater than 85%), the “Activity level (growth inhibition rate), Echinochloa crusgalli” value (Echinochloa crusgalli) was 5 (Level 5: the growth inhibition rate is greater than 85%) and the “Activity level (growth inhibition rate), Abutilon theophrasti Medic.” value [1] was 5 (Level 5: the growth inhibition rate is greater than 85%). For the same compound, the “Activity level (growth inhibition rate), Galium aparine” value [1] was 5 (Level 5: the growth inhibition rate is greater than 85%) and the “Activity level (growth inhibition rate), Monochoria Vaginalis” value [1] was 5 (Level 5: the growth inhibition rate is greater than 85%).
In the case of `COCCOC(=O)C(C)Oc1nc(C)c(Cl)c(N)c1Cl` (stereo not shown) [Compound 2-270], the “Activity level (growth inhibition rate), Digitaria sanguinalis” value (Digitaria sanguinalis) is reported as 5 (Level 5: the growth inhibition rate is greater than 85%), the “Activity level (growth inhibition rate), Echinochloa crusgalli” value (Echinochloa crusgalli) is reported as 5 (Level 5: the growth inhibition rate is greater than 85%) and the “Activity level (growth inhibition rate), Abutilon theophrasti Medic.” value [1] is reported as 5 (Level 5: the growth inhibition rate is greater than 85%). The “Activity level (growth inhibition rate), Galium aparine” value [1] was 5 (Level 5: the growth inhibition rate is greater than 85%) and the “Activity level (growth inhibition rate), Monochoria Vaginalis” value [1] was 5 (Level 5: the growth inhibition rate is greater than 85%).
For `CC(Oc1nc(F)c(Cl)c(N)c1Cl)C(=O)OCC(=O)N(C)C` (stereo not shown) [Compound 2-289], the “Activity level (growth inhibition rate), Digitaria sanguinalis” value (Digitaria sanguinalis) was 5 (Level 5: the growth inhibition rate is greater than 85%), the “Activity level (growth inhibition rate), Echinochloa crusgalli” value (Echinochloa crusgalli) was 5 (Level 5: the growth inhibition rate is greater than 85%) and the “Activity level (growth inhibition rate), Abutilon theophrasti Medic.” value [1] was 5 (Level 5: the growth inhibition rate is greater than 85%). For the same compound, the “Activity level (growth inhibition rate), Galium aparine” value [1] was 5 (Level 5: the growth inhibition rate is greater than 85%) and the “Activity level (growth inhibition rate), Monochoria Vaginalis” value [1] was 5 (Level 5: the growth inhibition rate is greater than 85%).
In the case of `CC(Oc1nc(F)c(Cl)c(N)c1Cl)C(=O)SC1CCCCC1` (stereo not shown) [Compound 2-266], the “Activity level (growth inhibition rate), Digitaria sanguinalis” value (Digitaria sanguinalis) is reported as 5 (Level 5: the growth inhibition rate is greater than 85%), the “Activity level (growth inhibition rate), Echinochloa crusgalli” value (Echinochloa crusgalli) is reported as 5 (Level 5: the growth inhibition rate is greater than 85%) and the “Activity level (growth inhibition rate), Abutilon theophrasti Medic.” value [1] is reported as 5 (Level 5: the growth inhibition rate is greater than 85%). The “Activity level (growth inhibition rate), Galium aparine” value [1] was 5 (Level 5: the growth inhibition rate is greater than 85%) and the “Activity level (growth inhibition rate), Monochoria Vaginalis” value [1] was 5 (Level 5: the growth inhibition rate is greater than 85%).
With `COC(=O)C(C)OC(=O)C(C)Oc1nc(F)c(Cl)c(N)c1Cl` (stereo not shown) [Compound 2-295] the “Activity level (growth inhibition rate), Digitaria sanguinalis” value (Digitaria sanguinalis) was 5 (Level 5: the growth inhibition rate is greater than 85%), the “Activity level (growth inhibition rate), Echinochloa crusgalli” value (Echinochloa crusgalli) was 5 (Level 5: the growth inhibition rate is greater than 85%) and the “Activity level (growth inhibition rate), Abutilon theophrasti Medic.” value [1] was 5 (Level 5: the growth inhibition rate is greater than 85%). For the same compound, the “Activity level (growth inhibition rate), Galium aparine” value [1] was 5 (Level 5: the growth inhibition rate is greater than 85%) and the “Activity level (growth inhibition rate), Monochoria Vaginalis” value [1] was 5 (Level 5: the growth inhibition rate is greater than 85%).
With `CCC(C)CCOC(=O)[C@@H](C)Oc1nc(F)c(Cl)c(N)c1Cl` (stereo partly shown) [Compound 2-105] the “Activity level (growth inhibition rate), Digitaria sanguinalis” value (Digitaria sanguinalis) was 5 (Level 5: the growth inhibition rate is greater than 85%), the “Activity level (growth inhibition rate), Echinochloa crusgalli” value (Echinochloa crusgalli) was 5 (Level 5: the growth inhibition rate is greater than 85%) and the “Activity level (growth inhibition rate), Abutilon theophrasti Medic.” value [1] was 5 (Level 5: the growth inhibition rate is greater than 85%). The “Activity level (growth inhibition rate), Galium aparine” value [1] was 5 (Level 5: the growth inhibition rate is greater than 85%) and the “Activity level (growth inhibition rate), Monochoria Vaginalis” value [1] was 5 (Level 5: the growth inhibition rate is greater than 85%).
For `CC(C)C(C)OC(=O)[C@@H](C)Oc1nc(F)c(Cl)c(N)c1Cl` (stereo partly shown) [Compound 2-95], the “Activity level (growth inhibition rate), Digitaria sanguinalis” value (Digitaria sanguinalis) was 5 (Level 5: the growth inhibition rate is greater than 85%), the “Activity level (growth inhibition rate), Echinochloa crusgalli” value (Echinochloa crusgalli) was 5 (Level 5: the growth inhibition rate is greater than 85%) and the “Activity level (growth inhibition rate), Abutilon theophrasti Medic.” value [1] was 5 (Level 5: the growth inhibition rate is greater than 85%). The “Activity level (growth inhibition rate), Galium aparine” value [1] was 5 (Level 5: the growth inhibition rate is greater than 85%) and the “Activity level (growth inhibition rate), Monochoria Vaginalis” value [1] was 5 (Level 5: the growth inhibition rate is greater than 85%).
`Cc1ccc(COC(=O)C(C)Oc2nc(F)c(Cl)c(N)c2Cl)cc1` (stereo not shown) [Compound 2-306] was tested, and the “Activity level (growth inhibition rate), Digitaria sanguinalis” value (Digitaria sanguinalis) was 5 (Level 5: the growth inhibition rate is greater than 85%), the “Activity level (growth inhibition rate), Echinochloa crusgalli” value (Echinochloa crusgalli) was 5 (Level 5: the growth inhibition rate is greater than 85%) and the “Activity level (growth inhibition rate), Abutilon theophrasti Medic.” value [1] was 5 (Level 5: the growth inhibition rate is greater than 85%). The “Activity level (growth inhibition rate), Galium aparine” value [1] was 5 (Level 5: the growth inhibition rate is greater than 85%) and the “Activity level (growth inhibition rate), Monochoria Vaginalis” value [1] was 5 (Level 5: the growth inhibition rate is greater than 85%).

Reference: US12304890B2, “R-type pyridyloxycarboxylic acid, salt and ester derivative thereof, and preparation method therefor, and herbicidal composition and application thereof” (Qingdao Kingagroot Chemical Compound Co., Ltd., priority 2018, dated 2025)
